Experimental data as given in patent US12466821B2 (Novartis AG, priority 2018, dated 2025).

Key:
[1] = test system: Luciferase-encoding HCMV, AD169 strain; experiment: CMV Luciferase assay (cellular herpesvirus replication); assay type: cell-based; conditions: Human betaherpesvirus 5, AD169, read-out: CMV-Luc Cellular EC50
How it was run: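 Neonatal human dermal fibroblasts were pretreated 1 h with compound (final 0.0159–50 μM or 0.00318–10 μM, 0.5% DMSO), then infected at MOI 1 with AD169 carrying pp28-promoter luciferase. After 72 h at 37 °C, Renilla-Glo luminescence normalized to no-virus and virus-only controls; EC50 by 4-parameter logistic model.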

[2] = molecular target: human HSV DNA polymerase UL30 (Human herpesvirus 1 (strain 17) (HHV-1) (Human herpes simplex virus 1), UniProt P04293); experiment: HSV polymerase biochemical assay (molecular beacon-based)
How it was run: (§1)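 Readout was beacon fluorescence (ex 480, em 535 nm), used to derive IC50. Each dNTP was at 1.25 uM, with 200 nM primer and 100 nM beacon, after a 30-min RT inhibitor preincubation. Enzyme was 625 pM for HSV UL30 (20 min RT reaction) or 100 pM for CMV UL54 (60 min RT), both sf9-expressed MBP fusions, in pH 7.5 Tris buffer with MgCl2.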

[3] = molecular target: human CMV DNA polymerase UL54 (Human cytomegalovirus (strain AD169) (HHV-5) (Human herpesvirus 5), UniProt P08546); experiment: CMV polymerase biochemical assay (molecular beacon-based)
How it was run: as §1

## CS(=N)(=O)C1(CN2CCn3c(ccc(C(=O)NCc4ccc(Cl)cc4)c3=O)C2=O)CC1 (stereo not drawn) [Example 95, N-(4-chlorobenzyl)-2-((1-(S-methylsulfonimidoyl)cyclopropyl)methyl)-1,6-dioxo-2,3,4,6-tetrahydro-1H-pyrido[1,2-a]pyrazine-7-carboxamide]
[1]
  EC50: 263 nM
[2]
  IC50: 722 nM
[3]
  IC50: 16.6 nM

## N#Cc1ccc(CNC(=O)c2ccc3n(c2=O)CCN(CC2(S(=O)(=O)C4(C(F)(F)F)CC4)CC2)C3=O)cc1 [Example 97-1]
[1]
  EC50: 222 nM
[2]
  IC50: 122 nM
[3]
  IC50: 5 nM

## N#Cc1ccc(CNC(=O)c2ccc3n(c2=O)CCN(CC2(S(=O)(=O)C4(C(F)(F)F)CC4)CC2)C3=O)cc1F [Example 97-2]
[1]
  EC50: 189 nM
[2]
  IC50: 90.8 nM
[3]
  IC50: 3.2 nM

## N#Cc1ccc(CNC(=O)c2ccc3n(c2=O)CCN(CC2(S(=O)(=O)C4CC4(F)F)CC2)C3=O)cc1 (stereo not drawn) [Example 98-1]
[1]
  EC50: 65.2 nM
[2]
  IC50: 57.5 nM
[3]
  IC50: 1.5 nM

## N#Cc1ccc(CNC(=O)c2ccc3n(c2=O)CCN(CC2(S(=O)(=O)C4CC4(F)F)CC2)C3=O)cc1F (stereo not drawn) [Example 98-2]
[1]
  EC50: 41 nM
[2]
  IC50: 57.6 nM
[3]
  IC50: 1.2 nM

## N#Cc1ccc(CNC(=O)c2ccc3n(c2=O)CCN(CC2(S(=O)(=O)C4CC4(F)F)CC2)C3=O)cc1Cl (stereo not drawn) [Example 98-3]
[1]
  EC50: 102 nM
[2]
  IC50: 200 nM
[3]
  IC50: 1.7 nM

## N#Cc1ccc(CNC(=O)c2ccc3n(c2=O)CCN(CC2(S(=O)(=O)C4(C(F)F)CC4)CC2)C3=O)cc1 [Example 99-1]
[1]
  EC50: 43.9 nM
[2]
  IC50: 49.4 nM
[3]
  IC50: 1 nM

## N#Cc1ccc(CNC(=O)c2ccc3n(c2=O)CCN(CC2(S(=O)(=O)C4(C(F)F)CC4)CC2)C3=O)cc1F [Example 99-2]
[1]
  EC50: 30.1 nM
[2]
  IC50: 52.4 nM
[3]
  IC50: 0.7 nM

## N#Cc1ccc(CNC(=O)c2ccc3n(c2=O)CCN(CC2(S(=O)(=O)C4(C(F)F)CC4)CC2)C3=O)cc1Cl [Example 99-3]
[1]
  EC50: 172 nM
[2]
  IC50: 201 nM
[3]
  IC50: 0.8 nM

## CC1(CS(=O)(=O)C2(CN3CCn4c(ccc(C(=O)NCc5ccc(Cl)cc5)c4=O)C3=O)CC2)COC1 [Example 103-1]
[1]
  EC50: 237 nM
[2]
  IC50: 109 nM
[3]
  IC50: 9.4 nM

## CC1(CS(=O)(=O)C2(CN3CCn4c(ccc(C(=O)NCc5ccc(C#N)cc5)c4=O)C3=O)CC2)COC1 [Example 103-2]
[1]
  EC50: 1270 nM
[2]
  IC50: 108 nM
[3]
  IC50: 1.1 nM

## CC1(CS(=O)(=O)C2(CN3CCn4c(ccc(C(=O)NCc5ccc(C#N)c(F)c5)c4=O)C3=O)CC2)COC1 [Example 103-3]
[1]
  EC50: 791 nM
[2]
  IC50: 170 nM
[3]
  IC50: 10.8 nM

## O=C(NCc1ccc(Cl)cc1)c1ccc2n(c1=O)CCN(CC1(S(=O)(=O)CC3(C(F)(F)F)CC3)CC1)C2=O [Example 104-1]
[1]
  EC50: 639 nM
[2]
  IC50: 185 nM
[3]
  IC50: 18.6 nM

## N#Cc1ccc(CNC(=O)c2ccc3n(c2=O)CCN(CC2(S(=O)(=O)CC4(C(F)(F)F)CC4)CC2)C3=O)cc1 [Example 104-2]
[1]
  EC50: 1820 nM
[2]
  IC50: 301 nM
[3]
  IC50: 24.3 nM

## N#Cc1ccc(CNC(=O)c2ccc3n(c2=O)CCN(CC2(S(=O)(=O)CC4(C(F)(F)F)CC4)CC2)C3=O)cc1F [Example 104-3]
[1]
  EC50: 1080 nM
[2]
  IC50: 273 nM
[3]
  IC50: 10.1 nM

## O=C(NCc1ccc(Cl)cc1)c1ccc2n(c1=O)CCN(CC1(S(=O)(=O)C3CCOCC3)CC1)C2=O [Example 105-1, N-(4-chlorobenzyl)-1,6-dioxo-2-((1-((tetrahydro-2H-pyran-4-yl)sulfonyl)cyclopropyl)methyl)-2,3,4,6-tetrahydro-1H-pyrido[1,2-a]pyrazine-7-carboxamide]
[1]
  EC50: 50.1 nM
[2]
  IC50: 39.7 nM
[3]
  IC50: 1.5 nM

## N#Cc1ccc(CNC(=O)c2ccc3n(c2=O)CCN(CC2(S(=O)(=O)C4CCOCC4)CC2)C3=O)cc1 [Example 105-2]
[1]
  EC50: 178 nM
[2]
  IC50: 64.3 nM
[3]
  IC50: 2.5 nM

## CC(C)(C)[S+]([O-])C1(CN2CCn3c(ccc(C(=O)NCc4ccc(C#N)cc4)c3=O)C2=O)CC1 (stereo not drawn) [Example 106, 2-((1-(tert-Butylsulfinyl)cyclopropyl)methyl)-N-(4-cyanobenzyl)-1,6-dioxo-2,3,4,6-tetrahydro-1H-pyrido[1,2-a]pyrazine-7-carboxamide]
[1]
  EC50: 1120 nM
[2]
  IC50: 972 nM
[3]
  IC50: 33.4 nM

## O=C(NCc1ccc(Cl)cc1)c1ccc2n(c1=O)CCN(CC1(S(=O)(=O)CC3CC3)CC1)C2=O [Example 107-1, N-(4-chlorobenzyl)-2-((1-((cyclopropylmethyl)sulfonyl)cyclopropyl)methyl)-1,6-dioxo-2,3,4,6-tetrahydro-1H-pyrido[1,2-a]pyrazine-7-carboxamide]
[1]
  EC50: 111 nM
[2]
  IC50: 61.6 nM
[3]
  IC50: 1.9 nM

## N#Cc1ccc(CNC(=O)c2ccc3n(c2=O)CCN(CC2(S(=O)(=O)CC4CC4)CC2)C3=O)cc1 [Example 107-2]
[1]
  EC50: 200 nM
[2]
  IC50: 150 nM
[3]
  IC50: 2.5 nM

## N#Cc1ccc(CNC(=O)c2ccc3n(c2=O)CCN(CC2(S(=O)(=O)CC4CC4)CC2)C3=O)cc1F [Example 107-3]
[1]
  EC50: 174 nM
[2]
  IC50: 72.6 nM
[3]
  IC50: 2.2 nM

## CC1(CS(=O)(=O)C2(CN3CCn4c(ccc(C(=O)NCc5ccc(C#N)c(F)c5)c4=O)C3=O)CC2)CC1 [Example 109, N-(4-cyano-3-fluorobenzyl)-2-((1-(((1-methylcyclopropyl)methyl)sulfonyl)cyclopropyl)methyl)-1,6-dioxo-1,3,4,6-tetrahydro-2H-pyrido[1,2-a]pyrazine-7-carboxamide]
[1]
  EC50: 112 nM
[2]
  IC50: 121 nM
[3]
  IC50: 3.2 nM

## N#CC1(CS(=O)(=O)C2(CN3CCn4c(ccc(C(=O)NCc5ccc(Cl)cc5)c4=O)C3=O)CC2)CC1 [Example 110, N-(4-chlorobenzyl)-2-((1-(((1-cyanocyclopropyl)methyl)sulfonyl)cyclopropyl)methyl)-1,6-dioxo-1,3,4,6-tetrahydro-2H-pyrido pyrazine-7-carboxamide]
[1]
  EC50: 81.7 nM
[2]
  IC50: 33.5 nM
[3]
  IC50: 1.9 nM

## N#Cc1ccc(CNC(=O)c2ccc3n(c2=O)CCN(CC2(S(=O)(=O)CC4(C#N)CC4)CC2)C3=O)cc1 [Example 111]
[1]
  EC50: 433 nM
[2]
  IC50: 59.5 nM
[3]
  IC50: 3.6 nM

## N#Cc1ccc(CNC(=O)c2ccc3n(c2=O)CCN(CC2(S(=O)(=O)CC4(C#N)CC4)CC2)C3=O)cc1F [Example 112]
[1]
  EC50: 187 nM
[2]
  IC50: 44.1 nM
[3]
  IC50: 2.2 nM

## CS(=O)(=O)N(CCN1CCn2c(ccc(C(=O)NCc3ccc(Cl)cc3)c2=O)C1=O)C1CC1 [Example 115, N-(4-chlorobenzyl)-2-(2-(N-cyclopropylmethylsulfonamido)ethyl)-1,6-dioxo-2,3,4,6-tetrahydro-1H-pyrido[1,2-a]pyrazine-7-carboxamide]
[1]
  EC50: 15000 nM
[2]
  IC50: 13600 nM
[3]
  IC50: 747 nM

## O=C(NCc1ccc(Cl)cc1)c1ccc2n(c1=O)CCN(CCO)C2=O [Example 116, N-(4-chlorobenzyl)-2-(2-hydroxyethyl)-1,6-dioxo-2,3,4,6-tetrahydro-1H-pyrido[1,2-a]pyrazine-7-carboxamide]
[1]
  EC50: 24700 nM
[2]
  IC50: 14100 nM
[3]
  IC50: 2140 nM

## CS(=O)(=O)CCN1CCn2c(c(Br)cc(C(=O)NCc3ccc(Cl)cc3)c2=O)C1=O [Example 117, 9-bromo-N-(4-chlorobenzyl)-2-(2-(methylsulfonyl)ethyl)-1,6-dioxo-1,3,4,6-tetrahydro-2H-pyrido[1,2-a]pyrazine-7-carboxamide]
[1]
  EC50: 1440 nM
[2]
  IC50: 577 nM
[3]
  IC50: 285 nM
